Measured values published in the NIST ThermoML archive (doi:10.1016/j.tca.2008.10.019).
± gives the expanded uncertainty stated by the source.

Assays:
[1] = Molar enthalpy of transition or fusion; details: Crystal; DSC
[2] = Crystal; DTA

Molar enthalpy of transition or fusion [1]: 23.2 ± 0.72 kJ/mol | Normal melting temperature [2]: 170.00 ± 0.5 °C
SMILES: NC(=O)CC(N)=O [1,3-propanedioic acid, diamide]
